Values of other authors as cited in patent US20050267212A1, “Omega-3 fatty acids in the treatment of depression” (priority 1997, published 2005).

Target: T1, cyclooxygenase-2 (Homo sapiens, UniProt P35354)
T1 sequence (P35354 18-604): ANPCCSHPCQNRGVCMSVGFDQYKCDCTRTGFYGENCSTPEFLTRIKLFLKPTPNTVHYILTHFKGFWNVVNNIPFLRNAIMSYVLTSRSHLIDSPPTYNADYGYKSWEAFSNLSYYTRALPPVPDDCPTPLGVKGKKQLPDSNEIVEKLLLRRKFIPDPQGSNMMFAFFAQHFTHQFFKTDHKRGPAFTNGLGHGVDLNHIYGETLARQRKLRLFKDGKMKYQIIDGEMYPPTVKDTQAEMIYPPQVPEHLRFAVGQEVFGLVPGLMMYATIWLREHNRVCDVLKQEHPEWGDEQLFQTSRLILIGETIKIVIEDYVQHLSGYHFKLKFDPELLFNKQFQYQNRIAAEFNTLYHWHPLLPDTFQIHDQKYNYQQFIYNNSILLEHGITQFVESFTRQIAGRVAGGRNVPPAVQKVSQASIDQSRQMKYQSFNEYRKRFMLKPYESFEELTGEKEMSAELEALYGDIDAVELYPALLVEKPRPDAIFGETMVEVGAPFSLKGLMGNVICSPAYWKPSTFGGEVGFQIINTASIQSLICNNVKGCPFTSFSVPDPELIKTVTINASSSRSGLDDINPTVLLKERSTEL
Conditions: cultured human mast cells

## CC/C=C\C/C=C\C/C=C\C/C=C\C/C=C\CCCC(=O)O [EPA, eicosapentanoic acid]
  effect on cyclooxygenase-2: direct inhibition
